# Laboratory results taken from patent US20070270488A1, “Treatment and Assays” (The Queen's University of Belfast, priority 2004, published 2007).
# What was measured:
# p53^+/+ HCT116 cells = assay: PARP cleavage immunoblotting, p53^+/+ HCT116 cells; format: cell-based, human; settings: 5 μM, 48 hours, Western blot
# Procedure: (§4) Immunoblotting. Cells, were seeded at 1×10^6 cells per plate in 90 mm tissue culture dishes. […] After 48 hours, cells were harvested and resuspended in 200 μl of 1× RIPA buffer (20 mM TRIS pH7.4, 150 mM NaCl, 1 mM EDTA pH8.0, 1% Triton X-100, 0.1% SDS). Cells were lysed and centrifuged at 13,200 rpm/4° C. for 15 minutes to remove cell debris.
# (§5) Protein concentrations were determined using the BCA protein assay reagent (Pierce, Rockford, Ill.). Twenty micrograms of each protein sample were resolved by SDS-PAGE and transferred to a PVDF membrane by electroblotting. Immunodetection was performed using anti-PARP or anti-β-tubulin mouse monoclonal antibodies and a 1/2000 dilution of a horseradish peroxidase-conjugated sheep anti-mouse secondary antibody (Amersham, Buckinghamshire, England). The fluorescent signal was detected using the Super Signal chemiluminescent detection system (Pierce) according to the manufacturer's instructions.
# [1] = system: HCT116 p53^+/+ parental cells; assay: MTT cytotoxicity assay, HCT116 p53^+/+ parental cells; format: cell-based, human; settings: HCT116 p53^+/+ parental, 72 h, read-out: IC50(72 h)
# Procedure: (§1) Tissue culture. HCT116 p53^+/+ and p53^−/− isogenic human colon cancer cells were kindly provided by Professor Bert Vogelstein (John Hopkins University, Baltimore, Md.). Drug-resistant HCT116 sub-lines were developed in the inventors' laboratory by repeated exposure to stepwise increasing concentrations of 5-FU, CPT-11 or oxaliplatin over a period of approximately ten months. Parental and drug-resistant HCT116 cell lines were grown in McCoy's 5A medium supplemented with 10% dialysed foetal calf serum (FCS), 50 μg/ml penicillin-streptomycin, 2 mM L-glutamine and 1 mM sodium pyruvate (all from GIBCO Invitrogen Corporation, Paisley, Scotland) and maintained at 37° C. in a humidified atmosphere containing 5% CO2. 5-FU-resistant p53^+/+ and p53^−/− HCT116 cells were maintained in the presence of 2 μM and 4 μM 5-FU respectively. CPT-11-resistant p53^+/+ and p53^−/− HCT116 cells were maintained in the presence of 1 μM and 3 μM CPT-11 respectively. […] Prior to each experiment, resistant sub-lines were cultured in the absence of drug for 48 hours.
# (§2) Cytotoxicity studies. Cells were seeded at 2000 cells per well in 96-well microtiter plates. After 48 hours, cells were treated with a range of concentrations of 5-FU, CPT-11 or oxaliplatin.
# (§3) After 72 hours, 25 μl of MTT dye (5 mg/ml) was added to each well and the plates were incubated at 37° C. for 3 hours. Dark-blue formazan crystals formed by live cells were dissolved in 200 μl of DMSO and absorbance in individual wells was determined at 570 nm using an Emax precision microplate reader (Molecular Devices, Sunnyvale, Calif.).
# [2] = system: p53^+/+ oxaliplatin-resistant HCT116 cells; assay: MTT cytotoxicity assay, p53^+/+ oxaliplatin-resistant HCT116 cells; format: cell-based, human; settings: p53^+/+ oxaliplatin-resistant, MTT, 72 h; read-out: IC50(72 h)
# Procedure: as §1, §2, §3
# [3] = system: p53^−/− oxaliplatin-resistant HCT116 cells; assay: MTT cytotoxicity assay, p53^−/− oxaliplatin-resistant HCT116 cells; format: cell-based, human; settings: p53^−/− oxaliplatin-resistant, MTT, 72 h; read-out: IC50(72 h)
# Procedure: as §1, §2, §3
# [4] = system: p53^+/+ 5-FU-resistant HCT116 cells; assay: MTT cytotoxicity assay, p53^+/+ 5-FU-resistant HCT116 cells; format: cell-based, human
# Procedure: (§6) Tissue culture. HCT116 p53^+/+ and p53^−/− isogenic human colon cancer cells were kindly provided by Professor Bert Vogelstein (John Hopkins University, Baltimore, Md.). […] Parental and drug-resistant HCT116 cell lines were grown in McCoy's 5A medium supplemented with 10% dialysed foetal calf serum (FCS), 50 μg/ml penicillin-streptomycin, 2 mM L-glutamine and 1 mM sodium pyruvate (all from GIBCO Invitrogen Corporation, Paisley, Scotland) and maintained at 37° C. in a humidified atmosphere containing 5% CO2. 5-FU-resistant p53^+/+ and p53^−/− HCT116 cells were maintained in the presence of 2 μM and 4 μM 5-FU respectively. […] Prior to each experiment, resistant sub-lines were cultured in the absence of drug for 48 hours.
# [5] = system: p53^+/+ 5-FU-resistant HCT116 cells; assay: Flow cytometry cell cycle/apoptosis, p53^+/+ 5-FU-resistant cells; format: cell-based, human; settings: 72 hours
# Procedure: (§7) Parental and drug-resistant HCT116 cell lines were grown in McCoy's 5A medium supplemented with 10% dialysed foetal calf serum (FCS), 50 μg/ml penicillin-streptomycin, 2 mM L-glutamine and 1 mM sodium pyruvate (all from GIBCO Invitrogen Corporation, Paisley, Scotland) and maintained at 37° C. in a humidified atmosphere containing 5% CO2. 5-FU-resistant p53^+/+ and p53^−/− HCT116 cells were maintained in the presence of 2 μM and 4 μM 5-FU respectively. […] Prior to each experiment, resistant sub-lines were cultured in the absence of drug for 48 hours.
# (§8) Flow cytometry. Cells were seeded at 5×10^4 cells per well in 6-well plates. […] Seventy-two hours post-treatment, cells were harvested in 5 ml of 1× PBS/0.5 mM EDTA and pelleted by centrifugation at 1000 rpm/4° C. for 5 minutes. Cell pellets were washed once with 1× PBS/1% FCS, fixed in 70% ethanol and stained with propidium iodide. Analyses were performed on a Beckman Coulter Epics XL flow cytometer (Miami, Fla.).
# [6] = system: HCT116 p53^−/− parental cells; assay: MTT cytotoxicity assay, HCT116 p53^−/− parental cells; format: cell-based, human
# Procedure: as §1, §2, §3
# advanced CRC = settings: monotherapy; cited from earlier work
# p53^−/− HCT116 cells = assay: PARP cleavage immunoblotting, p53^−/− HCT116 cells; format: cell-based, human; settings: 5 μM, 48 hours, Western blot
# Procedure: as §4, §5
# [7] = system: p53^−/− CPT-11-resistant HCT116 cells; assay: Flow cytometry cell cycle/apoptosis, p53^−/− CPT-11-resistant cells; format: cell-based, human; settings: p53^−/− CPT-11-resistant cell line, data not shown
# [8] = system: p53^−/− 5-FU-resistant HCT116 cells; assay: MTT cytotoxicity assay, p53^−/− 5-FU-resistant HCT116 cells; format: cell-based, human
# Procedure: as §6
# [9] = system: p53^−/− 5-FU-resistant HCT116 cells; assay: Flow cytometry cell cycle/apoptosis, p53^−/− 5-FU-resistant cells; format: cell-based, human; settings: 1 μM, 5 μM and 10 μM, relative to untreated control cells
# Procedure: as §1
# Flow cytometry. Cells were seeded at 5×10^4 cells per well in 6-well plates. After 48 hours, cells were treated with a range of concentrations of 5-FU, CPT-11 or oxaliplatin. Seventy-two hours post-treatment, cells were harvested in 5 ml of 1× PBS/0.5 mM EDTA and pelleted by centrifugation at 1000 rpm/4° C. for 5 minutes. […]
# [10] = system: p53^+/+ HCT116 parental cells; assay: Flow cytometry cell cycle/apoptosis, p53^+/+ HCT116 parental cells; format: cell-based, human; settings: 72 hours
# Procedure: as §7, §8
# resected stage III CRC = settings: adjuvant 5-FU-based chemotherapy, patients with resected stage III CRC; cited from earlier work
# [11] = system: p53^+/+ CPT-11-resistant HCT116 cells; assay: MTT cytotoxicity assay, p53^+/+ CPT-11-resistant HCT116 cells; format: cell-based, human; settings: p53^+/+ CPT-11-resistant, MTT, 72 h; read-out: IC50(72 h)
# Procedure: as §6
# [12] = system: p53^−/− HCT116 parental cells; assay: Flow cytometry cell cycle/apoptosis, p53^−/− HCT116 parental cells; format: cell-based, human; settings: 72 hours
# Procedure: as §7, §8
# [13] = system: p53^−/− CPT-11-resistant HCT116 cells; assay: MTT cytotoxicity assay, p53^−/− CPT-11-resistant HCT116 cells; format: cell-based, human
# Procedure: as §6
compound,measurement,setting,value
O=c1[nH]cc(F)c(=O)[nH]1 [5-FU],PARP cleavage,p53^+/+ HCT116 cells,observed
same,IC50,[1],4.3 µM
same,IC50,[2],3.6 µM
same,IC50,[3],22 µM
same,increase in IC50 (72 hr) compared to parental cells,[4]; p53^+/+ 5-FU-resistant vs p53^+/+ parental,3.0 fold
same,IC50,"[4]; p53^+/+ 5-FU-resistant, MTT, 72 h, read-out: IC50(72 h)",12.7 µM
same,cell cycle distribution,[5]; 1 μM,no change in cell cycle profile
same,cell cycle distribution,[5]; 5 μM and 10 μM,majority of cells had arrested at the G1/S boundary
same,induction of apoptosis compared to parental cells,[5]; 5 μM and 10 μM,significantly reduced
same,IC50,"[6]; HCT116 p53^−/− parental, MTT, 72 h, read-out: IC50(72 h)",19.7 µM
same,increase in IC50 (72 h) dose in p53^−/− compared to p53^+/+ cells,[6]; parental HCT116 p53^−/− vs p53^+/+,4.6 fold
same,response rates,advanced CRC,10 to 15%
same,PARP cleavage,p53^−/− HCT116 cells,not
same,cross-resistance examined using cell cycle analyses,[7],no evidence of cross-resistance
same,increase in IC50 (72 hr) compared to parental cells,[8]; p53^−/− 5-FU-resistant vs p53^−/− parental,9.0 fold
same,IC50,"[8]; p53^−/− 5-FU-resistant, MTT, 72 h, read-out: IC50(72 h)",178 µM
same,cell cycle distribution,[9],no change in cell cycle profile
same,cell cycle distribution,[10]; 1 μM,S-phase arrest and evidence of polyploidy
same,cell cycle distribution,[10]; 5 μM and 10 μM,arrested in G2/M-phase
same,sub-G0/G1 content,"[10]; 5 μM and 10 μM, ~4% in control samples",30-35%
same,improvement of disease-free survival,resected stage III CRC,35%
same,improvement of overall survival,resected stage III CRC,22%
same,IC50,[11],4.2 µM
same,cell cycle distribution,[12]; 1 μM,arrested in S-phase
same,cell cycle distribution,[12]; 5 μM and 10 μM,majority of p53^−/− parental cells had DNA content >4N
same,drug-induced apoptosis in p53^−/− compared to p53^+/+ parental cells,[12]; range of concentrations,significantly less apoptosis
same,increase in IC50 (72 hr) compared to parental cells,[13]; p53^−/− CPT-11-resistant vs p53^−/− parental,~2 fold
same,IC50,"[13]; p53^−/− CPT-11-resistant, MTT, 72 h, read-out: IC50(72 h)",47 µM
